The results in this text go back to patent publication US9216972B2, “Tricyclic heterocyclic compounds” (Bristol-Myers Squibb Company, priority 2009, dated 2015).

One experiment concerns the target human S1P1 (Homo sapiens (Human), UniProt P21453). The experiment in a line: S1P1 Binding Assay (33P-S1P radioligand competition). The note with it: membranes from CHO cells expressing human S1P1; 0.03 nM 33P-S1P; rounded to two digits. Here is the method:
Membranes were prepared from CHO cells expressing human S1P1. Cells pellets (1×10^8cells/pellet) were suspended in buffer containing 20 mM HEPES, pH 7.5, 50 mM NaCl, 2 mM EDTA and Protease Inhibitor cocktail (Roche), and disrupted on ice using the Polytron homogenizer. The homogenate was centrifuged at 20,000 rpm (48,000 g) and the supernatant was discarded. The membrane pellets were resuspended in buffer containing 50 mM HEPES, pH 7.5, 100 mM NaCl, 1 mM MgCl2, 2 mM EDTA and stored in aliquots at −80° C. after protein concentration determination.
Membranes (2 μg/well) and 0.03 nM final concentration of ^33P-S1P ligand (1 mCi/ml, American Radiolabeled Chemicals) diluted in assay buffer (50 mM HEPES, pH7.4, 5 mM MgCl2, 1 mM CaCl2, 0.5% fatty acid free BSA, 1 mM NaF) were added to the compound plates (384 Falcon v-bottom plate (0.5 μl/well in a 11 point, 3-fold dilution). Binding was performed for 45 minutes at room temperature, terminated by collecting the membranes onto 384-well Millipore FB filter plates, and radioactivity was measured by TopCount. The competition data of the test compounds over a range of concentrations was plotted as percentage inhibition of radioligand specific binding. The IC50 is defined as the concentration of competing ligand needed to reduce specific binding by 50%.

The target in experiment [1] is S1P1 (membranes from S1P1/CHO cells) (Homo sapiens (Human), UniProt P21453). The experiment in a line: Receptor [35S] GTPγS Binding Assay, S1P1. The note with it: S1P1/CHO cell membranes; rounded to two digits. In kind it is biochemical. The protocol: (§1) Receptor [35S] GTPγS Binding Assays
(§2) Compounds were loaded in a 384 Falcon v-bottom plate (0.5 μl/well in a 11 point, 3-fold dilution). Membranes prepared from S1P1/CHO cells or EDG3-Ga15-bla HEK293T cells were added to the compound plate (40 μl/well, final protein 3 μg/well) with multidrop. [^35S]GTP (1250 Ci/mmol, Perkin Elmer) was diluted in assay buffer: 20 mM HEPES, pH7.5, 10 mM MgCl2, 150 mM NaCl, 1 mM EGTA, 1 mM DTT, 10 μM GDP, 0.1% fatty acid free BSA, and 10 μg/ml Saponin to 0.4 nM. 40 μl of the [^35S] GTP solution was added to the compound plate with a final concentration of 0.2 nM. The reaction was kept at room temperature for 45 min. At the end of incubation, all the mixtures in the compound plate were transferred to Millipore 384-well FB filter plates via the Velocity11 Vprep liquid handler. The filter plate was washed with water 4 times by using the manifold Embla plate washer and dried at 60° C. for 45 min. MicroScint 20 scintillation fluid (30 μl) was added to each well for counting on the Packard TopCount. EC50 is defined as the agonist concentration that corresponds to 50% of the Ymax (maximal response) obtained for each individual compound tested. The results in Table B were rounded to two digits.

The target in experiment [2] is S1P3 (membranes from EDG3-Ga15-bla HEK293T cells) (Homo sapiens (Human), UniProt Q99500). The experiment in a line: Receptor [35S] GTPγS Binding Assay, S1P3. The note with it: EDG3-Ga15-bla HEK293T cell membranes; rounded to two digits. In kind it is biochemical. The protocol: as §1, §2
In experiment [3] the test system is circulating blood lymphocytes. The experiment in a line: Blood Lymphocyte Reduction Assay (BLR) in Rodents. In kind it is in vivo. The note with it: Lewis rats, oral, dose 1.0 mg/kg, versus vehicle (PEG300) group. Here is the method: Blood Lymphocyte Reduction Assay (BLR) in Rodents
Lewis rats were dosed orally with test article (as a solution or suspension in the vehicle) or vehicle alone (polyethylene glycol 300, “PEG300”). Blood was drawn at 4 hr and 24 h by retro-orbital bleeding. Blood lymphocyte counts were determined on an ADVIA 120 Hematology Analyzer (Siemens Healthcare Diagnostics). The results were measured as a reduction in the percentage of circulating lymphocytes as compared to the vehicle treated group at the 4 hr and 24 hr measurement. The results represent the average results of all animals within each treatment group (n=3-4).

S1P3 (membranes from EDG3-Ga15-bla HEK293T cells), sequence (Q99500 whole entry): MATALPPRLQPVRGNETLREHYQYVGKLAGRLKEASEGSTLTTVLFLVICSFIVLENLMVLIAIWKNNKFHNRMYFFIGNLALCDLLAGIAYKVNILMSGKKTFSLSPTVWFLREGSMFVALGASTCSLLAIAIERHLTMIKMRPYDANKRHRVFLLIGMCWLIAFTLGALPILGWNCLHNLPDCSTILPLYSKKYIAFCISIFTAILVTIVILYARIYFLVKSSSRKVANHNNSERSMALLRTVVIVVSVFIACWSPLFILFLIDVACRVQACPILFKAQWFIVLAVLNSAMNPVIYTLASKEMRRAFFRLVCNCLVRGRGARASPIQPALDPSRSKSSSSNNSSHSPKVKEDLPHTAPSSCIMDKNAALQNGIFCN
S1P1 (membranes from S1P1/CHO cells), sequence (P21453 whole entry): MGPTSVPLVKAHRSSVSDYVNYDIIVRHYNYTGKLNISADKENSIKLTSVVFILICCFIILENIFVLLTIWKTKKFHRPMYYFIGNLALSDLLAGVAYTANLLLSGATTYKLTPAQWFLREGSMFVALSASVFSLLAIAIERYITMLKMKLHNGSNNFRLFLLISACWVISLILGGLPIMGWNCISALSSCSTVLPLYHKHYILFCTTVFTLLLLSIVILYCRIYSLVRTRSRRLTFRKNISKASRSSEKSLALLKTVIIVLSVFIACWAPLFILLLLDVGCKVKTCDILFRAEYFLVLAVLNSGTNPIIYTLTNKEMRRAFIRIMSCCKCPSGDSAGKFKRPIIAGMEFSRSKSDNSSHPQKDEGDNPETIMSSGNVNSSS
human S1P1, sequence (P21453 whole entry): as above

In turn, `CC(C)Oc1ccc(-c2onc3c2CCc2cc(CNCCC(=O)O)ccc2-3)cc1C#N` [Example 16, 3-((3-(3-Cyano-4-isopropoxyphenyl)-4,5-dihydronaphtho[1,2-c]isoxazol-7-yl)methylamine)propanoic acid] showed an IC50 on human S1P1 of 24 nM. The EC50 was found to be 24 nM in experiment [1] and 11000 nM in experiment [2].

Compound `OCC1COCCN1Cc1ccc2c(c1)CCc1c-2noc1-c1noc(-c2ccccc2)c1C(F)(F)F` (centres unmarked) [Example 74] came in with a concentration for half-maximal inhibition (IC50) on human S1P1 of 600 nM. Also, the EC50 in experiment [1] is 410 nM; in experiment [2] it was greater than 63000 nM.

As to `O=C(O)C1CN(Cc2ccc3c(c2)CCc2c-3noc2-c2onc(-c3ccccc3)c2C(F)(F)F)C1` [Example 7, 1-((3-(3-Phenyl-4-(trifluoromethyl)isoxazol-5-yl)-4,5-dihydronaphtho[1,2-c]isoxazol-7-yl)methyl)azetidine-3-carboxylic acid], on human S1P1, the IC50 was found to be 57 nM. Also, the EC50 in experiment [1] was 57 nM; in experiment [2] it was greater than 31000 nM.

At human S1P1, `O=C(O)[C@H]1CCCN(Cc2ccc3c(c2)CCc2c-3noc2-c2noc(-c3ccccc3)c2C(F)(F)F)C1` [Example 70, (3S)-1-((3-(5-Phenyl-4-(trifluoromethyl)isoxazol-3-yl)-4,5-dihydronaphtho[1,2-c]isoxazol-7-yl)methyl)piperidine-3-carboxylic acid] showed an IC50 of 22 nM. For the same compound, the results for the EC50 in experiment [1] and in experiment [2] were 49 nM and 4660 nM, respectively.

`CCCc1ccc(-c2noc3c2CCc2cc(CN4CC(C(=O)O)C4)ccc2-3)cc1` [Example 20, 1-((3-(4-Propylphenyl)-4,5-dihydronaphtho[2,1-d]isoxazol-7-yl)methyl)azetidine-3-carboxylic acid] registered an IC50 at human S1P1 of 56 nM. Also, the EC50 in experiment [1] was 220 nM; in experiment [2], greater than 31000 nM.

With `CC(C)Cc1ccc(-c2onc3c2CCc2cc(O)ccc2-3)cc1` [Example 41, 3-(4-Isobutylphenyl)-4,5-dihydronaphtho[1,2-c]isoxazol-7-ol], the IC50 at human S1P1 is 1600 nM. Moreover, the EC50 in experiment [1] is 1600 nM; in experiment [2], greater than 63000 nM.

Regarding `CC(N)(CCc1ccc2c(c1)CCc1c-2noc1-c1noc(-c2ccccc2)c1C(F)(F)F)C(=O)O` (single isomer, unassigned) [Example 94, 2-amino-2-methyl-4-(3-(5-phenyl-4-(trifluoromethyl)isoxazol-3-yl)-4,5-dihydronaphtho[1,2-c]isoxazol-7-yl)butanoic acid], the IC50 at human S1P1 stood at 16 nM. Further, the EC50 came out at 12 nM in experiment [1] and 16200 nM in experiment [2].

Compound `Oc1ccc2c(c1)CCc1c-2noc1-c1cc(-c2ccccc2Cl)n(-c2ccccc2)n1` [Example 33, 3-(5-(2-Chlorophenyl)-1-phenyl-1H-pyrazol-3-yl)-4,5-dihydronaphtho[1,2-c]isoxazol-7-ol] displayed an IC50 at human S1P1 of 250 nM. Besides, the EC50 is 250 nM in experiment [1] and greater than 31000 nM in experiment [2].

In turn, `CC(C)Oc1ccc(-c2onc3c2CCc2cc(CN4CC(C(=O)O)C4)ccc2-3)cc1C(F)(F)F` [Example 14, 1-((3-(4-Isopropoxy-3-(trifluoromethyl)phenyl)-4,5-dihydronaphtho[1,2-c]isoxazol-7-yl)methyl)azetidine-3-carboxylic acid] yielded an IC50 at human S1P1 of 6.7 nM. Moreover, the EC50 in experiment [1] was 11 nM; in experiment [2], greater than 31000 nM.

`CCCc1ccc(-c2onc3c2CCc2cc(OC[C@H](O)CO)ccc2-3)cc1` [Example 12, (R)-3-(3-(4-Propylphenyl)-4,5-dihydronaphtho[1,2-c]isoxazol-7-yloxy)propane-1,2-diol]: the IC50 at human S1P1 turned out to be 390 nM. The EC50 was 6300 nM in experiment [1] and greater than 31000 nM in experiment [2].

Regarding `O=C(O)C1CN(Cc2cc3c(cc2F)-c2noc(-c4onc(-c5ccccc5)c4C(F)(F)F)c2CC3)C1` [Example 67], the IC50 at human S1P1 is 5.6 nM. In addition, the 50% effective concentration (EC50) is 0.76 nM in experiment [1] and 14700 nM in experiment [2].

In the case of `O=C(O)C1CN(Cc2ccc3c(c2)CCc2c-3n[nH]c2-c2onc(-c3ccccc3)c2C(F)(F)F)C1` [Example 22, 1-((3-(3-Phenyl-4-(trifluoromethyl)isoxazol-5-yl)-4,5-dihydro-2H-benzo[g]indazol-7-yl)methyl)azetidine-3-carboxylic acid], the IC50 at human S1P1 was found to be 980 nM. The EC50 in experiment [1] is 980 nM; in experiment [2] it was greater than 63000 nM.

On human S1P1, `OCc1ccc2c(c1)CCc1c-2noc1-c1cccc(C(F)(F)F)c1` [Example 24, (3-(3-(Trifluoromethyl)phenyl)-4,5-dihydronaphtho[1,2-c]isoxazol-7-yl)methanol] registered an IC50 of 3200 nM. Moreover, the EC50 in experiment [1] was 3200 nM; in experiment [2] it was greater than 31000 nM.

The compound `N#CC1(NC(=O)[C@H](O)c2ccc3c(c2)CCc2c-3noc2-c2noc(-c3ccccc3)c2C(F)(F)F)CC1` (stereo in doubt) [Example 132, N-(1-cyanocyclopropyl)-2-hydroxy-2-(3-(5-phenyl-4-(trifluoromethyl)isoxazol-3-yl)-4,5-dihydronaphtho[1,2-c]isoxazol-7-yl)acetamide] returned an IC50 at human S1P1 of 4.1 nM. In addition, the EC50 in experiment [1] is 1.7 nM; in experiment [2], 8500 nM.

At human S1P1, `O=C(O)C1CN(Cc2ccc3c(c2)OCc2c-3noc2-c2onc(-c3ccccc3)c2C(F)(F)F)C1` [Example 61, 1-((3-(3-phenyl-4-(trifluoromethyl)isoxazol-5-yl)-4H-chromeno[4,3-c]isoxazol-7-yl)methyl)-azetidine-3-carboxylic acid] came in with an IC50 of 1.6 nM. Further, the figures for the EC50 in experiment [1] and in experiment [2] were 0.32 nM and greater than 31000 nM, respectively.

For `CCCc1ccc(-c2onc3c2COc2cc(CN4CC(C(=O)O)C4)ccc2-3)cc1` [Example 2, 1-((3-(4-Propylphenyl)-4H-chromeno[4,3-c]isoxazol-7-yl)methyl)azetidine-3-carboxylic acid], the IC50 on human S1P1 was found to be 1.2 nM. For the same compound, the EC50 in experiment [1] was found to be 1.2 nM; in experiment [2], 8200 nM. Also, the “% Reduction in Lymphocytes at 4 hr.” value in experiment [3] was determined as 65%.

The compound `Oc1ccc2c(c1)CCc1c-2noc1-c1cc(-c2ccccc2)on1` [Example 32, 3-(5-Phenylisoxazol-3-yl)-4,5-dihydronaphtho[1,2-c]isoxazol-7-ol] returned an IC50 on human S1P1 of 15000 nM. Further, the EC50 in experiment [1] was 15000 nM; in experiment [2] it was greater than 63000 nM.

Consider `O=C(O)C1CN(Cc2ccc3c(c2)CCc2c-3noc2-c2noc(-c3ccccc3)c2C(F)(F)F)C1` [Example 6, 1-((3-(5-Phenyl-4-(trifluoromethyl)isoxazol-3-yl)-4,5-dihydronaphtho[1,2-c]isoxazol-7-yl)methyl)azetidine-3-carboxylic acid], for which the IC50 at human S1P1 was found to be 0.66 nM. For the same compound, the half-maximal effective concentration (EC50) was 0.59 nM in experiment [1] and 4400 nM in experiment [2]. The “% Reduction in Lymphocytes at 4 hr.” value in experiment [3] is listed as 86%.

With `CC(N)(CO)CCc1ccc2c(c1)CCc1c-2noc1-c1noc(-c2ccccc2)c1C(F)(F)F` (single isomer, unassigned) [Example 93, 2-amino-2-methyl-4-(3-(5-phenyl-4-(trifluoromethyl)isoxazol-3-yl)-4,5-dihydronaphtho[1,2-c]isoxazol-7-yl)butan-1-ol], the IC50 at human S1P1 was 22 nM. Also, the EC50 in experiment [1] is 40 nM; in experiment [2], greater than 63000 nM.
